Patent US20230063462A1, “SULFONIMIDAMIDE COMPOUNDS AND COMPOSITIONS FOR TREATING CONDITIONS ASSOCIATED WITH NLRP ACTIVITY” (NOVARTIS AG, priority 2019, published 2023)
Read-outs that look alike come from different tables or passages of the source.

How the values were obtained:
THP-1 cells [1] = test: hTHP-1 assay: gramicidin-stimulated IL-1β detection in PMA-treated THP-1 cells; format: cell-based, human
Description: The following protocol is suitable for testing the activity of the compounds disclosed herein.
1. Experimental procedure • 1.1 Cell Culture • 1) Culture THP-1 cells in the complete RPMI-1640 medium with 10% FBS at 37° C., 5% CO2. • 2) Passage the cells every 3 days by inoculating 3×10^5 cells per ml. • 1.2 Compound Preparation • Prepare the 3-fold serial dilution of the compounds with DMSO in a 384-well LDV Microplate using TECAN EVO system to generate the compound source plate with 10 concentrations. […] HC: 100 μM CRID3 (MCC950)+5 μM gramicidin LC: 5 μM Gramicidin. • 1.5 IL-1β Detection • 1) Homogenize the 5× diluent #5 with a vortex and add 1 volume of stock solution in 4 volumes of distilled water. • 2) Thaw 20× stock solution of anti-IL1β-Cryptate-antibody and anti-IL1β XL-antibody. Dilute these two antibodies to 1× with detection buffer #3. • 3) Pre-mix the two ready-to-use antibody solutions just prior to use. • 4) Dispense 4 ul of pre-mixed Anti-IL1β antibodies working solution into all wells. • 5) Seal the plate and incubate overnight at 4° C. • 6) Read the cell plate using EnVison and plot Readout vs. the test compound concentration to calculate the IC50.
2. Data Analysis: • 1. IC50 of compounds can be calculated using the following formulas • Formula for IC50
% inhibition=100−100×[HCave-Readout/(HCave−LCave)] • 2. Fit the normalized data in a dose-response manner using XLfit, and calculate the compound concentration.

THP-1 cells [2] = test: as above; format: cell-based, human; details: Table B2, 10% FBS
[3] = Homo sapiens, THP-1, Table B1, 2% fetal bovine serum, class symbol, read-out: hTHP-1 IC50
[4] = Table B1, 2% fetal bovine serum, numeric value, read-out: hTHP-1 IC50
[5] = Table B1, 2% fetal bovine serum, class symbol, read-out: hTHP-1 IC50
[6] = Homo sapiens, THP-1, Table B2, 10% FBS, class symbol, read-out: hTHP-1 IC50 in 10% FBS
[7] = Homo sapiens, THP-1, Table B2, 10% FBS, numeric value, read-out: hTHP-1 IC50 in 10% FBS
[8] = Homo sapiens, THP-1, Table B1, 2% fetal bovine serum, numeric value, read-out: hTHP-1 IC50

| IC50 (THP-1 cells [1]; [4]) [nM] | IC50 (THP-1 cells [1]; [5]) [nM] | Structure (SMILES) | also measured |
| --- | --- | --- | --- |
| 38.9 | – | CC(C)(O)c1ncc(S(=O)(=NC(=O)Nc2c3c(cc4c2CC4)CC3)NC#N)s1 (single isomer, unassigned) [Example 23, (S) or (R)-N-cyano-2-(2-hydroxypropan-2-yl)-N′-(tricyclo[6.2.0.03,6]deca-1,3(6),7-trien-2-ylcarbamoyl)thiazole-5-sulfonimidamide] | IC50 (THP-1 cells [1]; [3]): 8 to 40 nM |
| 9.7 | 8 to 40 | CC(C)(O)c1ncc(S(=O)(=NC(=O)Nc2c3c(cc4c2CC4)CC3)NC#N)s1 (single isomer, unassigned) [Example 24, (R) or (S)-N-cyano-2-(2-hydroxypropan-2-yl)-N′-(tricyclo[6.2.0.03,6]deca-1,3(6),7-trien-2-ylcarbamoyl)thiazole-5-sulfonimidamide] | – |
| 27.5 | – | CC(C)(O)c1ncc(S(=O)(=NC(=O)Nc2c3c(cc4c2CC4)CCC3)NC#N)s1 (single isomer, unassigned) [Example 25, (S) or (R)-N-cyano-2-(2-hydroxypropan-2-yl)-N′-((2,4,5,6-tetrahydro-1H-cyclobuta[f]inden-3-yl)carbamoyl)thiazole-5-sulfonimidamide] | IC50 (THP-1 cells [1]; [3]): 8 to 40 nM |
| 13.5 | 8 to 40 | CC(C)(O)c1ncc(S(=O)(=NC(=O)Nc2c3c(cc4c2CC4)CCC3)NC#N)s1 (single isomer, unassigned) [Example 26, (R) or (S)-N-cyano-2-(2-hydroxypropan-2-yl)-N′-((2,4,5,6-tetrahydro-1H-cyclobuta[f]inden-3-yl)carbamoyl)thiazole-5-sulfonimidamide] | – |
| 92.8 | 40 to 200 | CC(C)(O)c1ncc(S(=O)(=NC(=O)Nc2c3c(cc4c2CCC4)CCC3)NC#N)s1 (single isomer, unassigned) [Example 27, (S) or (R)-N-cyano-N′-((1,2,3,5,6,7-hexahydro-s-indacen-4-yl)carbamoyl)-2-(2-hydroxypropan-2-yl)thiazole-5-sulfonimidamide] | – |
| 30.8 | 8 to 40 | CC(C)(O)c1ncc(S(=O)(=NC(=O)Nc2c3c(cc4c2CCC4)CCC3)NC#N)s1 (single isomer, unassigned) [Example 28, (R) or (S)-N-cyano-N′-((1,2,3,5,6,7-hexahydro-s-indacen-4-yl)carbamoyl)-2-(2-hydroxypropan-2-yl)thiazole-5-sulfonimidamide] | – |
| 58.2 | 40 to 200 | CC(C)(O)c1coc(S(=O)(=NC(=O)Nc2c3c(cc4c2CCC4)CCC3)NC#N)c1 (single isomer, unassigned) [Example 29, (R) or (S)-N-cyano-N′-(1,2,3,5,6,7-hexahydro-s-indacen-4-ylcarbamoyl)-4-(2-hydroxypropan-2-yl)furan-2-sulfonimidamide] | – |
| 16.7 | 8 to 40 | CC(C)(O)c1coc(S(=O)(=NC(=O)Nc2c3c(cc4c2CCC4)CCC3)NC#N)c1 (single isomer, unassigned) [Example 30, (S) or (R)-N-cyano-N′-((1,2,3,5,6,7-hexahydro-s-indacen-4-yl)carbamoyl)-4-(2-hydroxypropan-2-yl)furan-2-sulfonimidamide] | – |
| 33.8 | 8 to 40 | CC(C)(O)c1cccc(S(=O)(=NC(=O)Nc2c3c(cc4c2CCC4)CCC3)NC#N)c1 (single isomer, unassigned) [Example 31, (S) or (R)-N-cyano-N′-((1,2,3,5,6,7-hexahydro-s-indacen-4-yl)carbamoyl)-3-(2-hydroxypropan-2-yl)benzenesulfonimidamide] | – |
| 79.5 | 40 to 200 | CC(C)(O)c1cccc(S(=O)(=NC(=O)Nc2c3c(cc4c2CCC4)CCC3)NC#N)c1 (single isomer, unassigned) [Example 32, (R) or (S)-N-cyano-N′-((1,2,3,5,6,7-hexahydro-s-indacen-4-yl)carbamoyl)-3-(2-hydroxypropan-2-yl)benzenesulfonimidamide] | – |
| 1530 | 1000 to 5000 | N#CNS(=O)(=NC(=O)Nc1c2c(cc3c1CCC3)CCC2)c1ccccc1 (single isomer, unassigned) [Example 33, (S) or (R)-N-cyano-N′-((1,2,3,5,6,7-hexahydro-s-indacen-4-yl)carbamoyl)benzenesulfonimidamide] | – |
| 355 | 200 to 1000 | N#CNS(=O)(=NC(=O)Nc1c2c(cc3c1CCC3)CCC2)c1ccccc1 (single isomer, unassigned) [Example 34, (R) or (S)-N-cyano-N′-((1,2,3,5,6,7-hexahydro-s-indacen-4-yl)carbamoyl)benzenesulfonimidamide] | – |
| – | – | NS(=O)(=NC(=O)Nc1c2c(nc(C3CC3)c1C1CC1)CCC2)c1ccn(C2CC2)n1 (single isomer, unassigned) [Example 878, (R) or (S)-1-cyclopropyl-N′-((2,3-dicyclopropyl-6,7-dihydro-5H-cyclopenta[b]pyridin-4-yl)carbamoyl)-1H-pyrazole-3-sulfonimidamide] | IC50 (THP-1 cells [2]; class symbol): 40 to 200 nM; IC50 (THP-1 cells [2]; numeric value): 88 nM |
| – | – | NS(=O)(=NC(=O)Nc1c2c(nc(C3CC3)c1C1CC1)CCC2)c1ccn(C2CC2)n1 (single isomer, unassigned) [Example 879, (S) or (R)-1-cyclopropyl-N′-((2,3-dicyclopropyl-6,7-dihydro-5H-cyclopenta[b]pyridin-4-yl)carbamoyl)-1H-pyrazole-3-sulfonimidamide] | IC50 (THP-1 cells [2]; class symbol): 1000 to 5000 nM; IC50 (THP-1 cells [2]; numeric value): 4430 nM |
| – | – | NS(=O)(=NC(=O)Nc1c2c(nc(C(F)(F)F)c1C1CC1)CCC2)c1nn(C2CC2)cc1F (single isomer, unassigned) [Example 880, (R) or (S)-1-cyclopropyl-N′-((3-cyclopropyl-2-(trifluoromethyl)-6,7-dihydro-5H-cyclopenta [b]pyridin-4-yl)carbamoyl)-4-fluoro-1H-pyrazole-3-sulfonimidamide] | IC50 (THP-1 cells [2]; class symbol): 40 to 200 nM; IC50 (THP-1 cells [2]; numeric value): 53.9 nM |
| – | – | NS(=O)(=NC(=O)Nc1c2c(nc(C(F)(F)F)c1C1CC1)CCC2)c1nn(C2CC2)cc1F (single isomer, unassigned) [Example 881, (S) or (R)-1-cyclopropyl-N′-((3-cyclopropyl-2-(trifluoromethyl)-6,7-dihydro-5H-cyclopenta [b]pyridin-4-yl)carbamoyl)-4-fluoro-1H-pyrazole-3-sulfonimidamide] | IC50 (THP-1 cells [2]; class symbol): 1000 to 5000 nM; IC50 (THP-1 cells [2]; numeric value): 1410 nM |
| – | – | NS(=O)(=NC(=O)Nc1c2c(nc(C3CC3)c1C1CC1)CCC2)c1nn(C2CC2)cc1F (single isomer, unassigned) [Example 882, (R) or (S)-1-cyclopropyl-N′-((2,3-dicyclopropyl-6,7-dihydro-5H-cyclopenta[b]pyridin-4-yl)carbamoyl)-4-fluoro-1H-pyrazole-3-sulfonimidamide] | IC50 (THP-1 cells [2]; class symbol): 40 to 200 nM; IC50 (THP-1 cells [2]; numeric value): 102 nM |
| – | – | NS(=O)(=NC(=O)Nc1c2c(nc(C(F)(F)F)c1C1CC1)CCC2)c1ccn(C2CC2)n1 (single isomer, unassigned) [Example 898, (R) or (S)-1-cyclopropyl-N′-((3-cyclopropyl-2-(trifluoromethyl)-6,7-dihydro-5H-cyclopenta [b]pyridin-4-yl)carbamoyl)-1H-pyrazole-3-sulfonimidamide] | IC50 (THP-1 cells [1]; [6]): 40 to 200 nM; IC50 (THP-1 cells [1]; [7]): 114 nM |
| – | – | CC(C)(O)c1ncc(S(=O)(=NC(=O)Nc2c3c(cc4c2CCC4)CCC3)NC#N)s1 (centres unmarked) [Example 3, N-cyano-N′-((1,2,3,5,6,7-hexahydro-s-indacen-4-yl)carbamoyl)-2-(2-hydroxypropan-2-yl)thiazole-5-sulfonimidamide] | IC50 (THP-1 cells [1]; [3]): 40 to 200 nM; IC50 (THP-1 cells [1]; [8]): 34 nM |
| – | – | CC(C)(O)c1nc(CO)c([S@](=O)(=NC(=O)Nc2c3c(nc4c2CCC4(C)C)CCC3)NC#N)s1 [Example 12, (S) or-N-cyano-N′-((3,3-dimethyl-1,2,3,5,6,7-hexahydrodicyclopenta[b,e]pyridin-8-yl)carbamoyl)-4-(hydroxymethyl)-2-(2-hydroxypropan-2-yl)thiazole-5-sulfonimidamide] | IC50 (THP-1 cells [1]; [3]): 40 to 200 nM; IC50 (THP-1 cells [1]; [8]): 419 nM |
| – | – | NS(=O)(=NC(=O)Nc1c2c(nc(C(F)(F)F)c1C1CC1)CCC2)c1ccn(C2CC2)n1 (centres unmarked) [Example 873, 1-Cyclopropyl-N′-((3-cyclopropyl-2-(trifluoromethyl)-6,7-dihydro-5H-cyclopenta[b]pyridin-4-yl)carbamoyl)-1H-pyrazole-3-sulfonimidamide] | IC50 (THP-1 cells [1]; [6]): 40 to 200 nM; IC50 (THP-1 cells [1]; [7]): 128 nM |
| – | – | NS(=O)(=NC(=O)Nc1c2c(nc(C3CC3)c1C1CC1)CCC2)c1ccn(C2CC2)n1 (centres unmarked) [Example 877, 1-Cyclopropyl-N′-((2,3-dicyclopropyl-6,7-dihydro-5H-cyclopenta[b]pyridin-4-yl)carbamoyl)-1H-pyrazole-3-sulfonimidamide] | IC50 (THP-1 cells [1]; [6]): 40 to 200 nM; IC50 (THP-1 cells [1]; [7]): 154 nM |
